Data published in patent publication US9593110B2, “Neprilysin inhibitors” (Theravence Biopharma R&D IP, LLC, priority 2014, dated 2017).

Molecular target: human NEP (Homo sapiens (Human), UniProt P08473)
Experiment: In vitro enzyme inhibition assay at human NEP
Conditions: pKi, recombinant human NEP, fluorogenic peptide substrate, 37° C.

human NEP, sequence (P08473 52-750): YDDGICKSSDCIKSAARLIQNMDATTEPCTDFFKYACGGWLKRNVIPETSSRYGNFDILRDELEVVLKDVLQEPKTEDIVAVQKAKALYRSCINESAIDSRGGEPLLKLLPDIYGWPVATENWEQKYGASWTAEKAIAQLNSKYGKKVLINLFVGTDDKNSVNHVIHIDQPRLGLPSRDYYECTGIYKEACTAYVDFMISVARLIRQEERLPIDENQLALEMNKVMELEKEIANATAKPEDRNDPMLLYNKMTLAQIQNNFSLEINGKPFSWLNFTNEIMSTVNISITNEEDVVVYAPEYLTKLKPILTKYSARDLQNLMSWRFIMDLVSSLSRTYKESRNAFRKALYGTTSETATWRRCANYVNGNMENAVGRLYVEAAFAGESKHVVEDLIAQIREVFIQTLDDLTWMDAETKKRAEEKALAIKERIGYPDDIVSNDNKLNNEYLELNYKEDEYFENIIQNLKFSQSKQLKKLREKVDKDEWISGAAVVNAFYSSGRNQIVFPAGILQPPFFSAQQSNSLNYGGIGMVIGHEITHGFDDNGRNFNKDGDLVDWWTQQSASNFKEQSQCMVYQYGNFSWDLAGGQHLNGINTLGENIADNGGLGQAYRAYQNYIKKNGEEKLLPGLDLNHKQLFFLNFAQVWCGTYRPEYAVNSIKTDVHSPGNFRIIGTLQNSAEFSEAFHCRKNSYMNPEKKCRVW

Question: With `CN(C)CC(=O)N[C@H](C[C@@H](Cc1ccc(-c2cc(Cl)ccc2F)cc1)NC(=O)c1cnn[nH]1)C(=O)O` [Example 64, (2R,4R)-5-(5′-Chloro-2′-fluorobiphenyl-4-yl)-2-(2-dimethylaminoacetylamino)-4-[(3H-[1,2,3]triazole-4-carbonyl)amino]pentanoic Acid] as the molecule, how does the Ki read?
Answer: The Ki was 1.26 to 3.16 nM.

Question: Which Ki does the source give for `O=C(N[C@H](Cc1ccc(-c2cc(Cl)ccc2F)cc1)CC(C(=O)O)c1cccnc1)c1cnn[nH]1` (single isomer, unassigned) [Example 77a] here?
Answer: Its Ki is 3.16 to 10 nM.

Question: Which Ki does the source give for `O=C(N[C@H](Cc1ccc(-c2ccccc2)cc1)C[C@@H](COCCCO)C(=O)O)c1c[nH]nn1` [Example 12, (2S,4S)-5-Biphenyl-4-yl-2-(3-hydroxypropoxymethyl)-4-[(1H-[1,2,3]triazole-4-carbonyl)amino]pentanoic Acid] here?
Answer: The Ki was 1.26 to 3.16 nM.

Question: With `CC(C)c1coc(C(=O)N[C@H](Cc2ccc(-c3cc(Cl)ccc3F)cc2)C[C@@H](NC(=O)[C@H](N)CO)C(=O)O)n1` [Example 42-1, (2R,4R)-2-((R)-2-Amino-3-hydroxypropionylamino)-5-(5′-chloro-2′-fluorobiphenyl-4-yl)-4-[(4-isopropyloxazole-2-carbonyl)-amino]pentanoic Acid] as the molecule, how does the Ki read?
Answer: The Ki was 1.26 to 3.16 nM.

Question: How did the Ki turn out when `COCc1cc(C(=O)N[C@H](Cc2ccc(-c3cc(Cl)ccc3F)cc2Cl)C[C@@H](N)C(=O)O)no1` [Example 18-7, (2R,4R)-2-Amino-5-(3,5′-dichloro-2′-fluorobiphenyl-4-yl)-4-[(5-methoxymethylisoxazole-3-carbonyl)amino]pentanoic acid] was run?
Answer: Its Ki is 10 to 31.6 nM.

Question: `NCCCC[C@H](N)C(=O)N[C@H](C[C@@H](Cc1ccc(-c2cc(Cl)ccc2F)cc1)NC(=O)c1cnn[nH]1)C(=O)O` [Example 56, (2R,4R)-5-(5′-Chloro-2′-fluorobiphenyl-4-yl)-2-((S)-2,6-diaminohexanoylamino)-4-[(3H-[1,2,3]triazole-4-carbonyl)amino]pentanoic Acid] was tested. Which Ki did it give?
Answer: Its Ki is 1.26 to 3.16 nM.

Question: `CCOC[C@H](C[C@@H](Cc1ccc(-c2cc(Cl)ccc2F)cc1)NC(=O)c1cocn1)C(=O)O` [Example 7-7, (2S,4S)-5-(5′-Chloro-2′-fluorobiphenyl-4-yl)-2-ethoxymethyl-4-[(oxazole-4-carbonyl)amino]pentanoic acid] was tested. Which Ki did it give?
Answer: The Ki was 1.26 to 3.16 nM.

Question: `CC(C)c1coc(C(=O)N[C@H](Cc2ccc(-c3cc(Cl)ccc3F)cc2)C[C@@H](N)C(=O)O)n1` [Example 15, (2R,4R)-2-Amino-5-(5′-chloro-2′-fluorobiphenyl-4-yl)-4-[(4-isopropyloxazole-2-carbonyl)amino]pentanoic Acid] was tested. Which Ki did it give?
Answer: The Ki was at most 1 nM.

Question: `CC(=O)N[C@H](C[C@@H](Cc1ccc(-c2ccccc2)cc1)NC(=O)c1c[nH]nn1)C(=O)O` [Example 26, (2R,4R)-2-Acetylamino-5-biphenyl-4-yl-4-[(1H-[1,2,3]triazole-4-carbonyl)amino]pentanoic Acid] was tested. Which Ki did it give?
Answer: Its Ki is 3.16 to 10 nM.

Question: How did the Ki turn out when `CN(C)C[C@H](C[C@@H](Cc1ccc(-c2cc(Cl)ccc2F)cc1)NC(=O)c1cnn[nH]1)C(=O)O` [Example 75, (2S,4S)-5-(5′-Chloro-2′-fluorobiphenyl-4-yl)-2-dimethylaminomethyl-4-[(3H-[1,2,3]triazole-4-carbonyl)amino]pentanoic Acid] was run?
Answer: The Ki was 1.26 to 3.16 nM.

Question: With `N[C@H](C[C@@H](Cc1ccc(-c2cc(Cl)ccc2F)cc1)NC(=O)c1coc(C2CC2)n1)C(=O)O` [Example 16-4, (2R,4R)-2-Amino-5-(5′-chloro-2′-fluorobiphenyl-4-yl)-4-[(2-cyclopropyloxazole-4-carbonyl)amino]pentanoic acid] as the molecule, how does the Ki read?
Answer: Its Ki is 1.26 to 3.16 nM.

Question: For `Cc1cnc(C(=O)N[C@H](Cc2ccc(-c3cc(Cl)ccc3F)cc2)C[C@@H](CNC(=O)CN)C(=O)O)o1` [Example 43, (2S,4S)-2-[(2-Aminoacetylamino)methyl]-5-(5′-chloro-2′-fluorobiphenyl-4-yl)-4-[(5-methyloxazole-2-carbonyl)amino]pentanoic Acid], which Ki is on record?
Answer: The Ki was at most 1 nM.

Question: For `COC[C@@H]1CCN1C[C@H](C[C@@H](Cc1ccc(-c2cc(Cl)ccc2F)cc1)NC(=O)c1c[nH]nn1)C(=O)O` [Example 103d, (2S,4S)-5-(5′-Chloro-2′-fluorobiphenyl-4-yl)-2-((S)-2-methoxymethylazetidin-1-ylmethyl)-4-[(3H-[1,2,3]triazole-4-carbonyl)amino]pentanoic Acid], which Ki is on record?
Answer: Its Ki is at most 1 nM.

Question: For `CCCc1cc(C(=O)N[C@H](Cc2ccc(-c3cc(Cl)ccc3F)cc2)C[C@@H](N)C(=O)O)no1` [Example 16-2, (2R,4R)-2-Amino-5-(5′-chloro-2′-fluorobiphenyl-4-yl)-4-[(5-propylisoxazole-3-carbonyl)-amino]pentanoic acid], which Ki is on record?
Answer: The Ki was 1.26 to 3.16 nM.

Question: With `NC[C@H](C[C@@H](Cc1ccc(-c2ccccc2)cc1)NC(=O)c1c[nH]nn1)C(=O)O` [Example 22, (2S,4S)-2-Aminomethyl-5-biphenyl-4-yl-4-[(1H-[1,2,3]triazole-4-carbonyl)amino]pentanoic Acid] as the molecule, how does the Ki read?
Answer: The Ki was 1.26 to 3.16 nM.

Question: Which Ki does the source give for `Cc1nc(C(=O)N[C@H](Cc2ccc(-c3cc(Cl)ccc3F)cc2)C[C@@H](CN)C(=O)O)co1` [Example 21-5, (2S,4S)-2-Aminomethyl-5-(5′-chloro-2′-fluorobiphenyl-4-yl)-4-[(2-methyloxazole-4-carbonyl)amino]pentanoic acid] here?
Answer: Its Ki is 1.26 to 3.16 nM.

Question: `COC(=O)N[C@H](C(=O)N[C@H](C[C@@H](Cc1ccc(-c2cc(Cl)ccc2F)cc1)NC(=O)c1c[nH]nn1)C(=O)O)C(C)C` [Example 46, (2R,4R)-5-(5′-Chloro-2′-fluorobiphenyl-4-yl)-2-((S)-2-methoxycarbonylamino-3-methylbutyrylamino)-4-[(1H-[1,2,3]triazole-4-carbonyl)amino]pentanoic Acid] was tested. Which Ki did it give?
Answer: The Ki was 1.26 to 3.16 nM.

Question: With `Cc1cnc(C(=O)N[C@H](Cc2ccc(-c3cc(Cl)ccc3F)cc2)C[C@@H](N)C(=O)O)o1` [Example 16-3, (2R,4R)-2-Amino-5-(5′-chloro-2′-fluorobiphenyl-4-yl)-4-[(5-methyloxazole-2-carbonyl)-amino]pentanoic acid] as the molecule, how does the Ki read?
Answer: The Ki was 1.26 to 3.16 nM.

Same assay, conditions: recombinant human NEP, fluorogenic peptide substrate, 37° C.

Question: With `CCOC[C@H](C[C@@H](Cc1ccc(-c2cccc(Cl)c2)cc1)NC(=O)c1n[nH]c(C(F)(F)F)n1)C(=O)O` [Example 9-3, (2S,4S)-5-(3′-Chlorobiphenyl-4-yl)-2-ethoxymethyl-4-[(5-trifluoromethyl-1H-[1,2,4]triazole-3-carbonyl)amino]pentanoic acid] as the molecule, how does the pKi read?
Answer: Its pKi is “≧9.0”.

Question: `CN(C)C(=O)c1cc(C(=O)N[C@H](Cc2ccc(-c3cc(Cl)ccc3F)cc2)C[C@@H](N)C(=O)O)[nH]n1` [Example 16-18, (2R,4R)-2-Amino-5-(5′-chloro-2′-fluorobiphenyl-4-yl)-4-[(5-dimethylcarbamoyl-2H-pyrazole-3-carbonyl)amino]pentanoic acid] was tested. Which pKi did it give?
Answer: The pKi was “≧9.0”.

Question: `COC[C@H](C[C@@H](Cc1ccc(-c2cc(Cl)ccc2F)cc1)NC(=O)c1noc(=O)[nH]1)C(=O)O` [Example 2-11, (2S,4S)-5-(5′-Chloro-2′-fluorobiphenyl-4-yl)-2-methoxymethyl-4-[(5-oxo-4,5-dihydro-[1,2,4]oxadiazole-3-carbonyl)amino]pentanoic acid] was tested. Which pKi did it give?
Answer: Its pKi is “≧9.0”.

Question: `CCOC[C@H](C[C@@H](Cc1ccc(-c2cccc(Cl)c2)cc1)NC(=O)c1cc(OC)no1)C(=O)O` [Example 9-4, (2S,4S)-5-(3′-Chlorobiphenyl-4-yl)-2-ethoxymethyl-4-[(3-methoxy-isoxazole-5-carbonyl)amino]pentanoic acid] was tested. Which pKi did it give?
Answer: The pKi was “≧9.0”.

Question: Which pKi does the source give for `NC(=O)C1CN(C[C@H](C[C@@H](Cc2ccc(-c3cc(Cl)ccc3F)cc2)NC(=O)c2cnn[nH]2)C(=O)O)C1` [Example 96b, (2S,4S)-2-(3-Carbamoylazetidin-1-ylmethyl)-5-(5′-chloro-2′-fluorobiphenyl-4-yl)-4-[(3H-[1,2,3]triazole-4-carbonyl)amino]pentanoic Acid] here?
Answer: The pKi was “≧9.0”.

Question: `COC[C@H](C[C@@H](Cc1ccc(-c2cc(Cl)ccc2F)cc1)NC(=O)c1ccc(Cl)cn1)C(=O)O` [Example 2-12, (2S,4S)-5-(5′-Chloro-2′-fluorobiphenyl-4-yl)-4-[(5-chloro-pyridine-2-carbonyl)-amino]-2-methoxymethylpentanoic acid] was tested. Which pKi did it give?
Answer: The pKi was “≧9.0”.

Question: `N[C@@H](C[C@@H](Cc1ccc(-c2cc(Cl)ccc2F)cc1Cl)NC(=O)c1cc(C2CC2)on1)C(=O)O` [Example 18-10, (2S,4R)-2-Amino-4-[(5-cyclopropyl-isoxazole-3-carbonyl)-amino]-5-(3,5′-dichloro-2′-fluorobiphenyl-4-yl)pentanoic acid] was tested. Which pKi did it give?
Answer: Its pKi is “≧9.0”.

Question: `N[C@H](C[C@@H](Cc1ccc(-c2cc(Cl)ccc2F)cc1)NC(=O)c1cc(-c2cnccn2)n[nH]1)C(=O)O` [Example 16-33, (2R,4R)-2-Amino-5-(5′-chloro-2′-fluorobiphenyl-4-yl)-4-[(5-pyrazin-2-yl-2H-pyrazole-3-carbonyl)amino]pentanoic acid] was tested. Which pKi did it give?
Answer: Its pKi is “≧9.0”.

Question: For `N#CC[C@H](C[C@@H](Cc1ccc(-c2ccccc2)cc1)NC(=O)c1cnn[nH]1)C(=O)O` [Example 50, (2S,4S)-5-Biphenyl-4-yl-2-cyanomethyl-4-[(3H-[1,2,3]triazole-4-carbonyl)amino]pentanoic Acid], which pKi is on record?
Answer: The pKi was “≧9.0”.

Question: Which pKi does the source give for `N[C@@H](Cc1ccccc1)C(=O)N[C@H](C[C@@H](Cc1ccc(-c2cc(Cl)ccc2F)cc1)NC(=O)c1cnn[nH]1)C(=O)O` [Example 57, (2R,4R)-2-((S)-2-Amino-3-phenylpropionylamino)-5-(5′-chloro-2′-fluorobiphenyl-4-yl)-4-[(3H-[1,2,3]triazole-4-carbonyl)amino]pentanoic Acid] here?
Answer: The pKi was “≧9.0”.

Question: Which pKi does the source give for `CNCCCC(=O)N[C@H](C[C@@H](Cc1ccc(-c2cc(Cl)ccc2F)cc1)NC(=O)c1c[nH]nn1)C(=O)O` [Example 71, (2R,4R)-5-(5′-Chloro-2′-fluorobiphenyl-4-yl)-2-(4-methylamino-butyrylamino)-4-[(1H-[1,2,3]triazole-4-carbonyl)amino]pentanoic Acid] here?
Answer: The pKi was “≧9.0”.

Question: With `NC[C@H](C[C@@H](Cc1ccc(-c2cc(Cl)ccc2F)cc1)NC(=O)c1c[nH]nn1)C(=O)O` [Example 20, (2S,4S)-2-Aminomethyl-5-(5′-chloro-2′-fluorobiphenyl-4-yl)-4-[(1H-[1,2,3]triazole-4-carbonyl)amino]pentanoic Acid] as the molecule, how does the pKi read?
Answer: Its pKi is “≧9.0”.
